Results: patent US9302993B2, “8-hydroxy quinoline derivatives” (PRANA BIOTECHNOLOGY LIMITED, priority 2002, dated 2016)
Values belong to the compound of their own block, whether it stands above or below them.

Columns and labels:
[1] = molecular target: T1, hydrogen peroxide generation by Aβ in the presence of copper (Homo sapiens, UniProt P05067); experiment: Fluorometric H2O2 assay (Assay 1); type: biochemical; conditions: Aβ 1-42 with Cu-Gly, DCF/HRP, 37 C 60 min; several values in one cell = repeat determinations; read-out: Peroxide IC50
T1 construct: The reaction solutions contained Aβ 1-42 at concentrations in the range of 50 nM to 1 μM
T1 sequence (P05067 672-713 limits assumed): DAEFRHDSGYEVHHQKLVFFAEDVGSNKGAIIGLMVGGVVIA
Method in brief: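 Aβ1-42 (50 nM–1 μM) with Cu-glycine (2 Cu-Gly : 1 Aβ) and a reductant (dopamine 5 μM or ascorbic acid) was incubated 60 min at 37 °C in PBS pH 7.4 with test compound. H2O2 was detected with 100 μM deacetylated DCF and 0.1 μM HRP by fluorescence against H2O2 standards.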

B:P Ratio = type: in vivo
[2] = Mice plasma concentration; type: in vivo
[3] = tested on: transgenic Huntington's mice (R6/2); experiment: PBT1033 effects in transgenic Huntington's mice (Example 22); type: in vivo, mouse
Source text: This example describes an in vivo study of PBT1033 in transgenic Huntington's mice (R6/2) using the procedure of Nyuyen, Harby and Massa, 2005. During this study, 44 samples were collected for behavioral tests, including Rotarod performance, clasping tests, body weight and lifespan observations, and 24 samples were utilized for pathology assessments, including brain sectioning and staining for measuring lateral ventricle size, brain weight, whole brain western blotting for mutant Htt aggregate accumulation, and immunocytochemistry for Htt aggregates.
GROUP A: 10+6 (pathology) R6/2 MICE, treated daily with PBT1033
GROUP B: 10+6 (pathology) R6/2 MICE, treated daily with SSV solution
GROUP C: 12+6 (pathology) wild type (WT) mice, treated daily with PBT1033
GROUP D: 12+6 (pathology) WT mice, treated daily with SSV solution
3. PBT1033 in SSV solution was orally administered to mice at 0.6 mg/0.1 ml ([…])/20 g. The PBT1033 solution was taken up into a 1-cc syringe attached to a feeding needle and the drug was delivered by oral gavage.
4. Rotarod was assessed as described by Hockly et al., the contents of which are incorporated by reference, with the modification that the SDI Rota—Rod (San Diego Instruments, San Diego), was set to linearly increase in speed to 40 rpm in 4-min ramp time. Performance is at 4th, 8th, 10th, and 12th week, with three days (one for training) per period and three times per day.
5. Body Weight: once per week, start at age 3 weeks.
6. Clasping testing and Behavioral observation: once per week from 5th week and daily during the drug treating.
7. Lifespan observation: Group A and B were treated until they died.
8. Brain lateral ventricle size: mouse brain perfusion, sectioning and staining at age 10 weeks. Mice brains were perfused and fixed with 4% PFA and stained with H&E.
9. Whole Brain Western Blotting: whole mouse brain was homogenized in buffer (10 mM Tris HCl (pH 7.4) 11 mM EDTA Na2/1% Triton X100/complete protease inhibitor mixture and then centrifuged at 7000×g for 90 s. The supernatant was boiled in SDS sample buffer for 5 mm at 100° C.
40 micrograms of total protein was run on a 10% SDS gel with a 4% stacking gel. Antibody: anti-GAPDH (1:5000), EM48 anti-Htt antibody (1:1000)
10. Brain weight: brain weighed before freezing at −80° C.
11. Immunohistochemistry was performed in accordance with the procedure in Assay 15, hereinabove.

APP2576 transgenic mouse = experiment: Transgenic mouse brain immunohistochemistry, plaque abundance (Assay 15); type: in vivo; conditions: for % difference from control (sham treated animal): plaque score; for Mean plaque score: scale 0 to 4
Source text: Assay 15. Transgenic Mouse Brain Immunohistochemistry
The APP2576 transgenic mouse (Hsiao et al., 1996) as referred to in Assay 11 were utilized in this assay. The contralateral formalin-fixed mouse brain tissue was coronally cut. Sections (10 μm) were taken from the corresponding sites and treated with 80% formic acid for antigen retrieval. The primary antibody used was monoclonal antibody 1E8, which recognizes epitopes between residues 18 and 22 of Aβ (SmithKline Beecham, UK). Immunoreactivity was developed with secondary antibody linked to horseradish peroxidase (using a 3,39-diaminobenzidinechromagen) (Dako) and alkaline phosphatase (using 5-bromo-4-chloro 3-indoxyl phosphate and nitroblue tetrazolium chloride chromagen) (Dako). Plaque abundance per section was assessed by two operators blinded to treatment according to the following scale:
1=plaques present but very sparse
2=several plaques present
3=numerous plaques visible in restricted areas
4=plaques abundant and not restricted to any particular area.
Intermediate values eg 2.5 were assigned where applicable.
Students' t ‘test was used for comparisons between groups.

healthy volunteers = experiment: Clinical study of 1033, single and multiple oral doses (Example 23); type: in vivo
Procedure: 1033 was administered to healthy volunteers in a 2-part study comprising single dose administration (Stage A) and multidose administration (Stage B).
The objectives of the following trials were to determine the safety, tolerability and pharmacokinetics of single and multiple oral doses of 1033 in healthy volunteers. Double-blind studies were conducted. The protocol included safety measures designed to capture the potential human adverse effects. A total of 65 healthy subjects have been exposed to doses of 1033 (41 single dose, 24 multiple dose).
In Stage A, fifty five (55) healthy male subjects aged 18-50 years were randomised (3:1) to receive a single oral dose of either placebo or 1033 at one of 7 dose levels (25, 50, 100, 200, 300, 500 or 800 mg).
In Stage B, thirty two (32) healthy male and female subjects aged 45-75 years (eight subjects per dose level) were randomised (3:1) to receive a daily oral dose over 7 consecutive days of either placebo or 1033 at one of 4 dose levels (200, 400, 600 or 800 mg). Each dose level comprised of 4 males and 4 females; the randomisation schedule ensuring that 1 subject/sex received placebo and 3 subjects/sex received 1033.

IC50 [1]: 0.28 µM
SMILES: Cn1cnc(CCNC(=O)c2ccc3c(Cl)cc(Cl)c(O)c3n2)c1 [compound 1050, 5,7-dichloro-8-hydroxyquinoline-2-carboxylic acid [2-(1-methyl-1H-imidazol-4-yl)-ethyl]-amide]

SMILES: CN(C)Cc1ccc2c(Cl)cc(Cl)c(O)c2n1.Cl [compound 1033, 5,7-Dichloro-2-dimethylaminomethyl-quinolin-8-ol hydrochloride]
B:P Ratio (B:P Ratio; at 5 min): 12.85 | B:P Ratio (B:P Ratio; at 60 min): 9.45 | IC50 [1]: 0.38 µM | Mice plasma concentration [2]: Up to 500 ng/ml | life span ([3]; Group A (PBT1033) compared with Group B (SSV)): survived significantly longer | clasping latency and duration ([3]; Group B (SSV) compared with Group A (PBT1033)): significantly greater | body weight ([3]; Group B (SSV) vs A, C and D groups): significantly decreased | brain weight ([3]; R6/2 mice, Group A): 0.373±0.0228 | rotarod performance time ([3]; R6/2 mice, Group A, 10th week): 28 ± 4 s | rotarod performance time ([3]; R6/2 mice, Group A, 12 week): 26 ± 4 s | Lateral ventricle area ([3]; R6/2 mice, Group A, age 10 weeks): 0.36±0.086 mm^2 | mutant Huntingtin (Htt) protein aggregates, Western analysis ([3]; whole brain, HDexon1 mice): not in treated animals | % difference from control (sham treated animal) (APP2576 transgenic mouse): −41% | Mean plaque score (APP2576 transgenic mouse): 2.06 | tolerability, single oral dose (healthy volunteers; Stage A, healthy male volunteers aged 18 to 50 years, 25-800 mg): well tolerated | clinical laboratory evaluations and physical assessments (healthy volunteers; Stage A, single oral dose): No clinically significant or relevant changes | incidence of adverse events (healthy volunteers; Stage A, single oral dose): 43.9% | tolerability, multiple dose (healthy volunteers; Stage B, healthy elderly subjects, daily oral dose over 7 days, 200-800 mg): generally well tolerated

SMILES: CCNCc1ccc2c(Cl)cc(Cl)c(O)c2n1.Cl [compound 1051, 5,7-dichloro-2-ethylaminomethyl-quinolin-8-ol hydrochloride]
% difference from control (sham treated animal) (APP2576 transgenic mouse): −39% | Mean plaque score (APP2576 transgenic mouse): 2.13

SMILES: O=C(NCCc1c[nH]cn1)c1ccc2c(Cl)cc(Cl)c(O)c2n1 [compound 1038, 5,7-Dichloro-8-hydroxyquinoline-2-carboxylic acid [2-(1H-imidazol-4-yl)-ethyl]-amide]
% difference from control (sham treated animal) (APP2576 transgenic mouse): −17% | Mean plaque score (APP2576 transgenic mouse): 3.0
